We go through nine compounds from US9873670B2, “Arylquinoline and analog compounds and use thereof to treat cancer” (UNIVERSITY OF KENTUCKY RESEARCH FOUNDATION, priority 2013, dated 2018).

The subject of one series is Par-4 secretion. Put plainly: Par-4 secretion, cells not specified. The series is classed as cell-based.
Series [1] relates to mouse embryonic fibroblast (MEF) cells. Put plainly: Par-4 secretion from normal mouse fibroblasts (Western blot of conditioned medium). The settings on record: for level of Par-4 secretion, structure-activity comparison among analogs: normal mouse fibroblasts, conditions not toxic to the cells. The series is classed as cell-based. The protocol: In another aspect, the subject technology provides assays for screening test compounds that interfere with vimentin binding to PAR-4 or which cause release of vimentin-bound PAR-4. In a typical assay, cells, such as HEL cells, are seeded onto an appropriate support, such as 60-mm plates containing supplemented growth medium (e.g., supplemented with 0.1% serum) at a desired confluency, such as 40-70% confluency, and treated with the test compound (e.g., 500 nM) or control vehicle. The cells are allowed to grow for a period of time, such as 24 hours, after which the conditioned medium (CM) is concentrated (e.g., concentrated 30× to 100 μl using Millipore tubes (Amicon Ultra centrifugal filters, Ultracel-10K) by 15 min centrifugation at 4500 rpm). The concentrated CM is then subjected to co-immunoprecipitation using detectably labeled PAR-4 and vimentin antibodies in the presence of various concentrations of purified PAR-4 and the precipitated proteins are resolved by SDS-PAGE and analyzed by Western blot analysis. The amount of immunoprecipitated PAR-4-vimentin complex is compared to that of control samples. For example, chemiluminescent signals may be quantified in the BIO-RAD Molecular Imager ChemiDoc XRS+Imaging system using Quantity One software. Induction of Par-4 secretion by the test drug (e.g., 500 nM), as judged by this Western blot analysis procedure, will indicate dissociation of Par-4 from vimentin. […] For such experiments, cells may be treated with the test drug (e.g., 500 nM) or vehicle for an appropriate period of time, such as 24 hours, and then cell lysates are prepared and subjected to immunoprecipitation using an appropriate amount of a Par-4 antibody, vimentin antibody or control IgG antibody by using any standard immunoprecipitation procedure. Following […], the complexes are resolved, preferably by Western blot analysis as described above. If the drug inhibits the binding of Par-4 to vimentin, it will be reflected in the lack of co-immunoprecipitation of Par-4 with the vimentin antibody, and co-immunoprecipitation of vimentin with the Par-4 antibody.
Co-Immunoprecipitation and Western blot analysis: Protein extracted from cell lysates was filtered, pre-cleared with 25 μL (bed volume) of protein G-Sepharose beads and immunoprecipitated with 1 μg of respective antibodies. The eluted proteins were resolved by SDS-PAGE, and subjected to Western blot analysis as described.
To identify Par-4 secretagogues, we synthesized and screened 3-arylquinolines as well as related quinolones and quinothiolones for the secretion of Par-4 protein from normal fibroblasts under conditions that are not toxic to the cells.
We screened representative members of each of these heterocyclic families on a compound-by-compound basis for the secretion of Par-4 protein from normal mouse fibroblasts under conditions that were not toxic to the cells. Initial expectations were that these heterocycles would serve as Nutlin-3a surrogates and inhibit MDM2, but studies reported herein established a completely different mechanism of action, reflecting that the structural dissimilarities between these heterocycles and Nutlin-3a outweighed the similarities that led to their initial selection for screening.
On the technique in general: A western blot detects proteins with antibodies after separation by electrophoresis.

Broadly, the melting point is the temperature, or range, at which the solid turns liquid.

Turning to `C[C@H]1CCC/C=C/[C@@H]2C[C@H](O)C[C@H]2[C@H](O)/C=C/C(=O)O1` [Brefeldin A, reference compound], the “effect on basal and Arylquin 1-inducible Par-4 secretion” value in the series with Par-4 secretion is “inhibited basal as well as Arylquin 1-inducible Par-4 secretion”.

`CN(C)c1ccc2cc(-c3ccccc3F)cnc2c1` [Arylquin 6, 3-(2-fluorophenyl)-N,N-dimethylquinolin-7-amine] showed a melting point of 142 to 144 °C. Moreover, the “level of Par-4 secretion, structure-activity comparison among analogs” value in series [1] is reported as “highest levels of Par-4 secretion”.

`CN(C)c1ccc2cc(-c3cccc(F)c3)c(N)nc2c1` [Arylquin 2, 3-(3-fluorophenyl)-N^7,N^7-dimethylquinoline-2,7-diamine]: the melting point is 147 to 148 °C.

As for `CN(C)c1ccc2cc(-c3ccccc3F)c(SCC(=O)NCCOCCOCCNC(=O)CCCCC3SCC4NC(=O)NC43)nc2c1` (centres unmarked) [Biotinylated Arylquin 9, N-(2-(2-(2-(2-(7-(dimethylamino)-3-(2-fluorophenyl)quinolin-2-ylthio)acetamido)ethoxy)ethoxy)ethyl)-5-(2-oxohexahydro-1H-thieno[3,4-d]imidazol-4-yl)pentanamide], the Par-4 secretory properties result in the series with Par-4 secretion is on record as “retain Par-4 secretory properties”.

The compound `CN(C)c1ccc2cc(-c3ccccc3F)c(=S)[nH]c2c1` [Arylquin 5, 7-(dimethylamino)-3-(2-fluorophenyl)quinoline-2(1H)-thione] showed a melting point of 251 to 253 °C.

Regarding `Nc1nc2ccccc2cc1-c1ccccc1F` [Arylquin 8, 3-(2-fluorophenyl)quinolin-2-amine], the melting point lay in the range of 152 to 153 °C. Besides, in series [1], the “level of Par-4 secretion, structure-activity comparison among analogs” value was “highest levels of Par-4 secretion”.

In turn, `CN(C)c1ccc2cc(-c3ccccc3)c(N)nc2c1` [Arylquin 7, N^7,N^7-Dimethyl-3-phenylquinoline-2,7-diamine] gave a melting point of 123 to 125 °C.

On to `COc1ccc(C2=N[C@@H](c3ccc(Cl)cc3)[C@@H](c3ccc(Cl)cc3)N2C(=O)N2CCNC(=O)C2)c(OC(C)C)c1` [Nutlin-3a, reference compound], for which, in series [1] (MEF cells), the Par-4 secretion result is “stimulated Par-4 secretion at micromolar levels”.

The compound `CN(C)c1ccc2cc(-c3ccccc3F)c(=O)[nH]c2c1` [Arylquin 4, 7-(dimethylamino)-3-(2-fluorophenyl)quinolin-2(1H)-one] had a melting point of 247 to 248 °C.
